Measured values from patent US4818761A, “2-(4-pyridylaminomethyl)-benzimidazole derivatives having antiviral activity” (priority 1986, dated 1989).
In brackets after ≈: the same amount, converted by molar mass.

tested on: coxsackievirus type B4 (CB4); test: Inhibition of CB4 plaque formation in LLC-MK2 cells; assay type: cell-based; settings: CI = CD50 (LLC-MK2)/IC50 (plaque)

| SMILES | CI CB4 (C)/(A) |
| --- | --- |
| CCOc1ccc2[nH]c(CNc3ccncc3)nc2c1 [IV] | > 1 |
| Clc1ccc(-n2c(CNc3ccncc3)nc3ccccc32)cc1 [LIX] | > 1,176 |
| Cc1cc2nc(CNc3ccncc3)[nH]c2cc1Cl [XXIX] | 15 |
| CCc1ccc2nc(CNc3ccncc3)n(-c3ccccc3)c2c1 [XLV] | 11 |
| CC(=O)OCCOCn1c(CNc2ccncc2)nc2ccccc21 [LV] | 8 |
| Clc1ccc2nc(CNc3ccncc3)n(-c3ccccc3)c2c1 [XLVII] | > 250 |
| Cc1ccc(-n2c(CNc3ccncc3)nc3ccccc32)cc1C [LXX] | > 6 |

same assay, conditions: Coxsackievirus; plaque reduction, LLC-MK2 cells, 37° C.

| SMILES | IC50 [µg/mL] |
| --- | --- |
| CCOc1ccc2[nH]c(CNc3ccncc3)nc2c1 [IV] | 93 (≈ 347 µM) |
| Clc1ccc(-n2c(CNc3ccncc3)nc3ccccc32)cc1 [LIX] | 0.85 (≈ 2.54 µM) |
| Cc1cc2nc(CNc3ccncc3)[nH]c2cc1Cl [XXIX] | 11.5 (≈ 42.2 µM) |
| CCc1ccc2nc(CNc3ccncc3)n(-c3ccccc3)c2c1 [XLV] | 5 (≈ 15.2 µM) |
| CC(=O)OCCOCn1c(CNc2ccncc2)nc2ccccc21 [LV] | 11.9 (≈ 35 µM) |
| Clc1ccc2nc(CNc3ccncc3)n(-c3ccccc3)c2c1 [XLVII] | 1.2 (≈ 3.58 µM) |
| Cc1ccc(-n2c(CNc3ccncc3)nc3ccccc32)cc1C [LXX] | 16 (≈ 48.7 µM) |

tested on: not listed separately; test: in vitro; settings: human, hela cells

| SMILES | CC50 [µg/mL] |
| --- | --- |
| CCOc1ccc2[nH]c(CNc3ccncc3)nc2c1 [IV] | > 100 |
| Clc1ccc(-n2c(CNc3ccncc3)nc3ccccc32)cc1 [LIX] | > 100 |
| Cc1cc2nc(CNc3ccncc3)[nH]c2cc1Cl [XXIX] | 56.2 (≈ 206 µM) |
| CCc1ccc2nc(CNc3ccncc3)n(-c3ccccc3)c2c1 [XLV] | 56.2 (≈ 171 µM) |
| CC(=O)OCCOCn1c(CNc2ccncc2)nc2ccccc21 [LV] | > 100 |
| Clc1ccc2nc(CNc3ccncc3)n(-c3ccccc3)c2c1 [XLVII] | 17.8 (≈ 53.2 µM) |
| Cc1ccc(-n2c(CNc3ccncc3)nc3ccccc32)cc1C [LXX] | > 100 |

tested on: enterovirus type 70 (EV70); test: Inhibition of EV70 plaque formation in LLC-MK2 cells; assay type: cell-based; settings: CI = CD50 (LLC-MK2)/IC50 (plaque)

| SMILES | CI EV70 (C)/(A) |
| --- | --- |
| CCOc1ccc2[nH]c(CNc3ccncc3)nc2c1 [IV] | > 3 |
| Clc1ccc(-n2c(CNc3ccncc3)nc3ccccc32)cc1 [LIX] | > 833 |
| Cc1cc2nc(CNc3ccncc3)[nH]c2cc1Cl [XXIX] | 118 |
| CCc1ccc2nc(CNc3ccncc3)n(-c3ccccc3)c2c1 [XLV] | 35 |
| CC(=O)OCCOCn1c(CNc2ccncc2)nc2ccccc21 [LV] | > 63 |
| Clc1ccc2nc(CNc3ccncc3)n(-c3ccccc3)c2c1 [XLVII] | > 130 |
| Cc1ccc(-n2c(CNc3ccncc3)nc3ccccc32)cc1C [LXX] | > 15 |

same assay, conditions: Enterovirus D; plaque reduction, LLC-MK2 cells, 33° C.

| SMILES | IC50 [µg/mL] |
| --- | --- |
| CCOc1ccc2[nH]c(CNc3ccncc3)nc2c1 [IV] | 39 (≈ 145 µM) |
| Clc1ccc(-n2c(CNc3ccncc3)nc3ccccc32)cc1 [LIX] | 1.2 (≈ 3.58 µM) |
| Cc1cc2nc(CNc3ccncc3)[nH]c2cc1Cl [XXIX] | 1.5 (≈ 5.5 µM) |
| CCc1ccc2nc(CNc3ccncc3)n(-c3ccccc3)c2c1 [XLV] | 1.6 (≈ 4.87 µM) |
| CC(=O)OCCOCn1c(CNc2ccncc2)nc2ccccc21 [LV] | 1.6 (≈ 4.7 µM) |
| Clc1ccc2nc(CNc3ccncc3)n(-c3ccccc3)c2c1 [XLVII] | 2.3 (≈ 6.87 µM) |
| Cc1ccc(-n2c(CNc3ccncc3)nc3ccccc32)cc1C [LXX] | 6.5 (≈ 19.8 µM) |

tested on: poliovirus type 2 (Polio2); test: microbe, parasite or virus in culture; assay type: cell-based; settings: CI = CD50 (LLC-MK2)/IC50 (plaque)

| SMILES | CI Polio2 (C)/(A) |
| --- | --- |
| Clc1ccc(-n2c(CNc3ccncc3)nc3ccccc32)cc1 [LIX] | > 111 |
| Cc1cc2nc(CNc3ccncc3)[nH]c2cc1Cl [XXIX] | 3 |
| CC(=O)OCCOCn1c(CNc2ccncc2)nc2ccccc21 [LV] | > 6 |

same assay, conditions: Enterovirus C, LLC-MK2, read-out: IC50 Polio2

| SMILES | IC50 [µg/mL] |
| --- | --- |
| CCOc1ccc2[nH]c(CNc3ccncc3)nc2c1 [IV] | 460 (≈ 1710 µM) |
| Clc1ccc(-n2c(CNc3ccncc3)nc3ccccc32)cc1 [LIX] | 9.6 (≈ 28.7 µM) |
| Cc1cc2nc(CNc3ccncc3)[nH]c2cc1Cl [XXIX] | 52 (≈ 191 µM) |
| CCc1ccc2nc(CNc3ccncc3)n(-c3ccccc3)c2c1 [XLV] | > 100 |
| CC(=O)OCCOCn1c(CNc2ccncc2)nc2ccccc21 [LV] | 17.6 (≈ 51.7 µM) |
| Clc1ccc2nc(CNc3ccncc3)n(-c3ccccc3)c2c1 [XLVII] | > 100 |
| Cc1ccc(-n2c(CNc3ccncc3)nc3ccccc32)cc1C [LXX] | > 50 |

tested on: rhinovirus type 14 (HRV14); test: Inhibition of HRV14 plaque formation in HeLa cells; assay type: cell-based; settings: CI = CD50 (HeLa)/IC50 (plaque)

| SMILES | CI HRV14 (D)/(B) |
| --- | --- |
| Clc1ccc(-n2c(CNc3ccncc3)nc3ccccc32)cc1 [LIX] | > 4 |
| Cc1cc2nc(CNc3ccncc3)[nH]c2cc1Cl [XXIX] | 15 |
| CC(=O)OCCOCn1c(CNc2ccncc2)nc2ccccc21 [LV] | > 6 |
| Clc1ccc2nc(CNc3ccncc3)n(-c3ccccc3)c2c1 [XLVII] | 4 |
| Cc1ccc(-n2c(CNc3ccncc3)nc3ccccc32)cc1C [LXX] | > 2 |

same assay, conditions: Enterovirus, HRV14; plaque reduction, HeLa cells, 33° C.

| SMILES | IC50 [µg/mL] |
| --- | --- |
| Clc1ccc(-n2c(CNc3ccncc3)nc3ccccc32)cc1 [LIX] | 25 (≈ 74.7 µM) |
| Cc1cc2nc(CNc3ccncc3)[nH]c2cc1Cl [XXIX] | 3.8 (≈ 13.9 µM) |
| CC(=O)OCCOCn1c(CNc2ccncc2)nc2ccccc21 [LV] | 15.6 (≈ 45.8 µM) |
| Clc1ccc2nc(CNc3ccncc3)n(-c3ccccc3)c2c1 [XLVII] | 4.4 (≈ 13.1 µM) |
| Cc1ccc(-n2c(CNc3ccncc3)nc3ccccc32)cc1C [LXX] | 40.7 (≈ 124 µM) |

tested on: rhinovirus type 14 (HRV14); test: Inhibition of HRV14 cytopathogenic effect (CPE) in HeLa cells; assay type: cell-based; settings: CI = CD50 (HeLa)/IC50 (virus CPE)

| SMILES | CI HRV14 (D)/(B) |
| --- | --- |
| CCc1ccc2nc(CNc3ccncc3)n(-c3ccccc3)c2c1 [XLV] | 10 |

same assay, conditions: Enterovirus, HRV14; * Virus CPE inhibition assay, HeLa cells, 33° C.

| SMILES | IC50 [µg/mL] |
| --- | --- |
| CCOc1ccc2[nH]c(CNc3ccncc3)nc2c1 [IV] | > 100 |
| CCc1ccc2nc(CNc3ccncc3)n(-c3ccccc3)c2c1 [XLV] | 5.6 (≈ 17.1 µM) |

tested on: not listed separately; test: in vitro; settings: monkey, llc-mk2 cells

| SMILES | CC50 [µg/mL] |
| --- | --- |
| CCOc1ccc2[nH]c(CNc3ccncc3)nc2c1 [IV] | > 100 |
| Clc1ccc(-n2c(CNc3ccncc3)nc3ccccc32)cc1 [LIX] | > 1000 |
| Cc1cc2nc(CNc3ccncc3)[nH]c2cc1Cl [XXIX] | 177 (≈ 648 µM) |
| CCc1ccc2nc(CNc3ccncc3)n(-c3ccccc3)c2c1 [XLV] | 56.2 (≈ 171 µM) |
| CC(=O)OCCOCn1c(CNc2ccncc2)nc2ccccc21 [LV] | > 100 |
| Clc1ccc2nc(CNc3ccncc3)n(-c3ccccc3)c2c1 [XLVII] | > 300 |
| Cc1ccc(-n2c(CNc3ccncc3)nc3ccccc32)cc1C [LXX] | > 100 |
